Assay results taken from ChEMBL document CHEMBL1909046, “DrugMatrix in vitro pharmacology data”.
*1 amine or outer side, *2 acyl side, *3 side chain or, on linkers, in order; H or OH if unused. Where a SMILES comes first, the peptide text is derived from it. Bridges are numbered along the chain shown (N, C = ends). Roman numbers before positions name the chains, in order. [ ]: non-standard residue; d: D form. Actinocin(1to9) = Cc1c2oc3c(C)ccc(C(=O)[*:2])c3nc-2c(C(=O)[*:1])c(N)c1=O; NMeV = CN[C@H](C(=O)O)C(C)C; Sar = CNCC(=O)O

Tests used:
[1] = DRUGMATRIX: Phosphodiesterase PDE3 enzyme inhibition (substrate: [3H]cAMP + cAMP); format: tissue-based, Homo sapiens; details: platelet; Not Active = under 50% inhibition at 10 µM
[2] = target: Tyrosine-protein kinase Lck (Homo sapiens, UniProt P06239); experiment: DRUGMATRIX: Protein Tyrosine Kinase, LCK enzyme inhibition (substrate: Poly(Glu:Tyr)); format: cell-based, Insect cells; details: Not Active = under 50% inhibition at 10 µM
[3] = target: T1, Glucocorticoid receptor (Homo sapiens, UniProt P04150); details: hela s3; note: in other assays of this panel Not Active means under 50% inhibition at 10 µM
T1 sequence (P04150 whole entry): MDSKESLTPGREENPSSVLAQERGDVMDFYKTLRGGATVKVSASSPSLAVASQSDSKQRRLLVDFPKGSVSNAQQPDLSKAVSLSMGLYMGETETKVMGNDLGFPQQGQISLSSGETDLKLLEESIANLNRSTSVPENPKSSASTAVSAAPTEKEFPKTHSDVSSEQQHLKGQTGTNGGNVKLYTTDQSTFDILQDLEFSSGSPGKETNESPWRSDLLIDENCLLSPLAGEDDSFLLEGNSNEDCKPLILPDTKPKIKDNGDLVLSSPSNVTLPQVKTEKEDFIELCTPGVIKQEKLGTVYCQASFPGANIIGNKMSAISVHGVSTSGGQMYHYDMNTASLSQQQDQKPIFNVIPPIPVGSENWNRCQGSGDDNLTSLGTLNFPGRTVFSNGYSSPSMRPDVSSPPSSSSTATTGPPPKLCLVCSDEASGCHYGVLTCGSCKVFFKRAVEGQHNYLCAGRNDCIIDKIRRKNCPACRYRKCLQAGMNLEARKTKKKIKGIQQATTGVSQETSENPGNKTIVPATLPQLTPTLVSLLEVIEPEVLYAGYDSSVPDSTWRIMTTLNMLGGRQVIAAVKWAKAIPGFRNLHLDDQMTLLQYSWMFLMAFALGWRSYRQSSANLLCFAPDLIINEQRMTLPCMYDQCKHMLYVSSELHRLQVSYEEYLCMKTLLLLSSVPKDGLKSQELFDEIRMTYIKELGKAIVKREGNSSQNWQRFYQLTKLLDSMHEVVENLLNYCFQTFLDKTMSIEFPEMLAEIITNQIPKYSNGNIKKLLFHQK

[4] = target: T2, B2 bradykinin receptor (Homo sapiens, UniProt P30411); format: cell membranes, Membrane; details: chem-1; note: in other assays of this panel Not Active means under 50% inhibition at 10 µM
T2 sequence (P30411 whole entry): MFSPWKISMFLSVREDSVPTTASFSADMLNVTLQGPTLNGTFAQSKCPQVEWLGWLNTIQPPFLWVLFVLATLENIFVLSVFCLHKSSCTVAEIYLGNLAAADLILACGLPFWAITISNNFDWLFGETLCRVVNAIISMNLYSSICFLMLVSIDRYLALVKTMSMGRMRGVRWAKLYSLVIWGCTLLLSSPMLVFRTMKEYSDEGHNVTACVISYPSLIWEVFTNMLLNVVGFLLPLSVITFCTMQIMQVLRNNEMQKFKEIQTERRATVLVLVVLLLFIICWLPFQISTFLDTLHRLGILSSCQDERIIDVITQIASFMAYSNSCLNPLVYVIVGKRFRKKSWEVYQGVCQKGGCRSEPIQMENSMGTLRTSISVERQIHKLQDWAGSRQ

[5] = target: T3, Vasoactive intestinal polypeptide receptor 1 (Homo sapiens, UniProt P32241); format: cell membranes, Membrane; details: ht-29; note: in other assays of this panel Not Active means under 50% inhibition at 10 µM
T3 sequence (P32241 whole entry): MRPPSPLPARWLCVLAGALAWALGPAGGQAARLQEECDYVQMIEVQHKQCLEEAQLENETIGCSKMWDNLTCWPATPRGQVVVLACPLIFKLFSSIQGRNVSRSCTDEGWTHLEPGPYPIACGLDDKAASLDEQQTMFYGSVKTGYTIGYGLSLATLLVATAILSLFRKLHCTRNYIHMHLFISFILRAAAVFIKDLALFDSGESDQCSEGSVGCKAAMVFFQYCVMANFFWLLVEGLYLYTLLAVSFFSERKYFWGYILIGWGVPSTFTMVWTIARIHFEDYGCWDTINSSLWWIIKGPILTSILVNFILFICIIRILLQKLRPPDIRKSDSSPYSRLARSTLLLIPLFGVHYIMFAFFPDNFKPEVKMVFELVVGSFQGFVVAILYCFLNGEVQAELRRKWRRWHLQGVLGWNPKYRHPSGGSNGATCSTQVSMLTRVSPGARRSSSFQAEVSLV

[6] = target: Tyrosine-protein kinase Fyn (Homo sapiens, UniProt P06241); experiment: biochemical; format: cell-based, Insect cells;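 note: enzymatic inhibition of Fyn kinase activity measured with Poly(Glu:Tyr) as the phosphorylation substrate; in other assays of this panel Not Active means under 50% inhibition at 10 µM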
[7] = target: Nitric oxide synthase 1 (Rattus norvegicus, UniProt P29476); format: tissue-based, Cerebellum; note: in other assays of this panel Not Active means under 50% inhibition at 10 µM
[8] = DRUGMATRIX: GABAA, Muscimol, Central radioligand binding (ligand: [3H] Muscimol); format: cell membranes, Rattus norvegicus, Wistar, Brain, Membrane; details: Not Active = under 50% inhibition at 10 µM

Chain of Nitric oxide synthase 1 (P29476 whole entry): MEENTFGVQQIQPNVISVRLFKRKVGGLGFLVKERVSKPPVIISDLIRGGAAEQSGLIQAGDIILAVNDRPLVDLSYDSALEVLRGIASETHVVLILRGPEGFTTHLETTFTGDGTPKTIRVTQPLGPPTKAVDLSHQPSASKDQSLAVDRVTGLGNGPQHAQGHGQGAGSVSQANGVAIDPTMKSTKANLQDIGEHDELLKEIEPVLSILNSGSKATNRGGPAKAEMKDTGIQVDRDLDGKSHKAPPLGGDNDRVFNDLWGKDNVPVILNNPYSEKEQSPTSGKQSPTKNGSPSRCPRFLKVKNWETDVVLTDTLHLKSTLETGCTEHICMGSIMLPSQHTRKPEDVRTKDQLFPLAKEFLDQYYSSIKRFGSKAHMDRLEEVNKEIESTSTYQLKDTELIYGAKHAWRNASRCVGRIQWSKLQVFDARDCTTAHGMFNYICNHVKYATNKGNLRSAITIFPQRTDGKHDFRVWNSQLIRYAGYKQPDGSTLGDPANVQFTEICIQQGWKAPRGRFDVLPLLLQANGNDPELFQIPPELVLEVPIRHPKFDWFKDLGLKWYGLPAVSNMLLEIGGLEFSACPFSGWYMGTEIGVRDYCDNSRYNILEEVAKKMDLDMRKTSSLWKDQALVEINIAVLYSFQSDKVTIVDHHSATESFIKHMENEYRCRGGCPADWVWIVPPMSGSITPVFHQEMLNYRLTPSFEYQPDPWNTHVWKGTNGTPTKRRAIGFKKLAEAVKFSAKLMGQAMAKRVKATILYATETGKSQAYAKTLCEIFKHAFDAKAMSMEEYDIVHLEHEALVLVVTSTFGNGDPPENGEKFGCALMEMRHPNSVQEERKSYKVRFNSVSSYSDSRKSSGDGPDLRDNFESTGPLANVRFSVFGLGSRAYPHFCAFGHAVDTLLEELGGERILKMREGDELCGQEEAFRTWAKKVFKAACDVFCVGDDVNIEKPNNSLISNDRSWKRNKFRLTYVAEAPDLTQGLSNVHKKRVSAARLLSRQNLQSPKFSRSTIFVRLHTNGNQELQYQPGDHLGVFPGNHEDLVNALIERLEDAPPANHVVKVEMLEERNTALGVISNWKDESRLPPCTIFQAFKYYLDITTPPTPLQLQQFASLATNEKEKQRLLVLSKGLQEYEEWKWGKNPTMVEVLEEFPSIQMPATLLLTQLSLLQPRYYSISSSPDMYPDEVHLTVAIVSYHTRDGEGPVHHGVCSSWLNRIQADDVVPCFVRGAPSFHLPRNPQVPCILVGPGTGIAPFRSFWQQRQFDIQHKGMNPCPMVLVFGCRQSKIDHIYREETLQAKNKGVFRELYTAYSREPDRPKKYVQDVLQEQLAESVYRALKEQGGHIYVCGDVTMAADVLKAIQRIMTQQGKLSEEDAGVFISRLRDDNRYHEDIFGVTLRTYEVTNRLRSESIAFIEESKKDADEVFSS
Chain of Tyrosine-protein kinase Fyn (P06241 whole entry): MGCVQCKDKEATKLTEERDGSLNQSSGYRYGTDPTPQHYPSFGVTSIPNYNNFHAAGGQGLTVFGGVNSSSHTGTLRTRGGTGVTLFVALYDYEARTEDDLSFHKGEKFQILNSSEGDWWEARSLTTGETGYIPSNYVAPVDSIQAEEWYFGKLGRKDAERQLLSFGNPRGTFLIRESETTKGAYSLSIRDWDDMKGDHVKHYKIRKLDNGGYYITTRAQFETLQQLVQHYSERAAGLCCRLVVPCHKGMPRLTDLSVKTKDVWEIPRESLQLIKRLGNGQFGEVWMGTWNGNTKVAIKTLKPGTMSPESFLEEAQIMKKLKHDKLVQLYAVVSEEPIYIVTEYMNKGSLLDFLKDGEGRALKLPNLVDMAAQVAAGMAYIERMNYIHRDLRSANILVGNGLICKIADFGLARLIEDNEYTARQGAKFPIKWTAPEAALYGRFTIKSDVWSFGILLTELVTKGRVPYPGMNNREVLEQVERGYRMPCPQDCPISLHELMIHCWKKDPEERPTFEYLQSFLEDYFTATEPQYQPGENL
Chain of Tyrosine-protein kinase Lck (P06239 whole entry): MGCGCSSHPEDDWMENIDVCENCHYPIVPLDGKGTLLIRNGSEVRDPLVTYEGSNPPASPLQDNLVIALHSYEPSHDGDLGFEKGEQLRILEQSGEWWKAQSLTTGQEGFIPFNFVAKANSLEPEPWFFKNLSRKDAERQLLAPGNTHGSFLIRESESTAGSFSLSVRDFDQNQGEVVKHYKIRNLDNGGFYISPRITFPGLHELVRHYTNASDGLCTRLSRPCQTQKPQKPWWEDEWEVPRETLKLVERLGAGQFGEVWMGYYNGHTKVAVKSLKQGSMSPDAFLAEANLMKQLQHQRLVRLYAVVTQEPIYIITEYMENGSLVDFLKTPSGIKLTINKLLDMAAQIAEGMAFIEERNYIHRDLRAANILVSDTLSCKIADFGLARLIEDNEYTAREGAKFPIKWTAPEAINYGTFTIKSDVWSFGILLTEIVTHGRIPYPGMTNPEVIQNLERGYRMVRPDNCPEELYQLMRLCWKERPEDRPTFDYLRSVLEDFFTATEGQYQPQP

| Compound | IC50 [1] | Ki [1] | IC50 ([2]; insect cells) | IC50 [3] | IC50 [4] | IC50 [5] | IC50 ([6]; insect cells) | IC50 [7] | IC50 [8] | Ki [8] | IC50 ([6]; read-out: IC50) [µM] | IC50 ([2]; read-out: IC50) [nM] |
| --- | --- | --- | --- | --- | --- | --- | --- | --- | --- | --- | --- | --- |
| c1ccc2c(c1)c1cccc3ccc4cccc2c4c31 [BENZO[E]PYRENE] | Not Active | Not Active | Not Active | Not Active | Not Active | Not Active | Not Active | Not Active | Not Active | Not Active | – | – |
| CNCCc1ccccn1 [BETAHISTINE] | Not Active | Not Active | Not Active | Not Active | Not Active | Not Active | Not Active | Not Active | Not Active | Not Active | – | – |
| CC(NC(C)(C)C)C(=O)c1cccc(Cl)c1 (stereo not given) [BUPROPION] | Not Active | Not Active | Not Active | Not Active | Not Active | Not Active | Not Active | Not Active | Not Active | Not Active | – | – |
| CN(Cc1ccc(C(C)(C)C)cc1)Cc1cccc2ccccc12 [BUTENAFINE] | Not Active | Not Active | Not Active | Not Active | Not Active | Not Active | Not Active | Not Active | Not Active | Not Active | – | – |
| C[C@H](CS)C(=O)N1CCC[C@H]1C(=O)O [CAPTOPRIL] | Not Active | Not Active | Not Active | Not Active | Not Active | Not Active | Not Active | Not Active | Not Active | Not Active | – | – |
| Cc1ccc(-c2cc(C(F)(F)F)nn2-c2ccc(S(N)(=O)=O)cc2)cc1 [CELECOXIB] | Not Active | Not Active | Not Active | Not Active | Not Active | Not Active | Not Active | Not Active | Not Active | Not Active | – | – |
| CN(C)CCCN1c2ccccc2Sc2ccc(Cl)cc21 [CHLORPROMAZINE] | Not Active | Not Active | Not Active | Not Active | Not Active | Not Active | – | Not Active | Not Active | Not Active | 8.68 | – |
| C[C@H](CCC(=O)O)[C@H]1CC[C@H]2[C@@H]3[C@H](O)C[C@@H]4C[C@H](O)CC[C@]4(C)[C@H]3C[C@H](O)[C@]12C [CHOLIC ACID] | Not Active | Not Active | Not Active | Not Active | Not Active | Not Active | Not Active | Not Active | Not Active | Not Active | – | – |
| Cc1cc(C2CCCCC2)n(O)c(=O)c1 [CICLOPIROX] | Not Active | Not Active | Not Active | Not Active | Not Active | Not Active | Not Active | Not Active | Not Active | Not Active | – | – |
| CC1=C2C(=CO[C@H](C)[C@H]2C)C(O)=C(C(=O)O)C1=O [CITRININ] | Not Active | Not Active | Not Active | Not Active | Not Active | Not Active | Not Active | Not Active | Not Active | Not Active | – | – |
| CC(C)(Oc1ccc(Cl)cc1)C(=O)O [CLOFIBRIC ACID] | Not Active | Not Active | Not Active | Not Active | Not Active | Not Active | Not Active | Not Active | Not Active | Not Active | – | – |
| Clc1cccc(Cl)c1NC1=NCCN1 [CLONIDINE] | Not Active | Not Active | Not Active | Not Active | Not Active | Not Active | Not Active | Not Active | Not Active | Not Active | – | – |
| Cc1cc(C(C#N)c2ccc(Cl)cc2)c(Cl)cc1NC(=O)c1cc(I)cc(I)c1O (stereo not given) [CLOSANTEL] | Not Active | Not Active | – | Not Active | Not Active | Not Active | – | Not Active | Not Active | Not Active | 0.939 | 1250 |
| Cc1onc(-c2ccccc2Cl)c1C(=O)N[C@@H]1C(=O)N2[C@@H]1SC(C)(C)[C@@H]2C(=O)O [CLOXACILLIN] | Not Active | Not Active | Not Active | Not Active | Not Active | Not Active | Not Active | Not Active | Not Active | Not Active | – | – |
| Cc1c2oc3c(C)ccc(C(=O)N[C@@H]4C(=O)N[C@H](C(C)C)C(=O)N5CCC[C@H]5C(=O)N(C)CC(=O)N(C)[C@@H](C(C)C)C(=O)O[C@@H]4C)c3nc-2c(C(=O)N[C@@H]2C(=O)N[C@H](C(C)C)C(=O)N3CCC[C@H]3C(=O)N(C)CC(=O)N(C)[C@@H](C(C)C)C(=O)O[C@@H]2C)c(N)c1=O [DACTINOMYCIN] (I: T[dV]P[Sar][NMeV] / II: T[dV]P[Sar][NMeV]; ester I:1-I:C, II:1-II:C; linker I:N-II:N via Actinocin(1to9)) | Not Active | Not Active | Not Active | Not Active | Not Active | Not Active | Not Active | Not Active | Not Active | Not Active | – | – |
| Cc1c(O)c(=O)ccn1C [DEFERIPRONE] | Not Active | Not Active | Not Active | Not Active | Not Active | Not Active | Not Active | Not Active | Not Active | Not Active | – | – |
| C[C@H]1O[C@@H](O[C@H]2[C@@H](O)C[C@H](O[C@H]3[C@@H](O)C[C@H](O[C@H]4CC[C@@]5(C)[C@H](CC[C@@H]6[C@@H]5C[C@@H](O)[C@]5(C)[C@@H](C7=CC(=O)OC7)CC[C@]65O)C4)O[C@@H]3C)O[C@@H]2C)C[C@H](O)[C@@H]1O [DIGOXIN] | Not Active | Not Active | Not Active | Not Active | Not Active | Not Active | Not Active | Not Active | Not Active | Not Active | – | – |
| CC(C)[C@@]1(NC(=O)[C@@H]2C[C@@H]3c4cccc5[nH]cc(c45)C[C@H]3N(C)C2)O[C@@]2(O)[C@@H]3CCCN3C(=O)[C@H](Cc3ccccc3)N2C1=O.CS(=O)(=O)O [DIHYDROERGOCRISTINE MESYLATE] | Not Active | Not Active | Not Active | Not Active | Not Active | Not Active | Not Active | Not Active | Not Active | Not Active | – | – |
